Measured values as given in PMC11117723, “Benzene with Alkyl Chains Is a Universal Scaffold for Multivalent Virucidal Antivirals” (ACS Central Science, 2024).
Like-named read-outs stand apart in the source and are kept apart here.

What was measured:
HSV-2 = HSV-2 inhibition (dose response) plaque assay on Vero cells; assay type: cell-based; details: for EC50: Vero cells, virus pre-incubated with compound 1 h, read-out: HSV-2 EC50 (95% CI)
in vitro [1] = details: African green monkey
[2] = Vero cell cytotoxicity (MTS assay); assay type: cell-based; details: African green monkey, Vero cells, read-out: CC50 (95% CI), Vero cells
SARS-CoV-2 (Alpha) = assay: SARS-CoV-2 (alpha strain) inhibition plaque assay on Vero E6 cells; assay type: cell-based; details: Severe acute respiratory syndrome coronavirus 2, Vero C1008, read-out: SARS-CoV-2 (Alpha) EC50 (95% CI)
HIV-1 (YU-2) = HIV-1 (YU-2) inhibition assay on TZM-bl cells (luciferase); assay type: cell-based; details: Human immunodeficiency virus 1, read-out: HIV-1 EC50 (95% CI)
[3] = TZM-bl cell cytotoxicity (WST-1); details: human
GFP-KSHV (KSHV) = assay: microbe, parasite or virus in culture; assay type: cell-based, Kaposi’s sarcoma-associated herpesvirus (KSHV); details: Human gammaherpesvirus 8, HEK-293T, read-out: KSHV EC50 (95% CI)
SARS-CoV-2 (Omicron) = assay: SARS-CoV-2 Omicron dose-response assay on Vero E6 cells; assay type: cell-based; details: Severe acute respiratory syndrome coronavirus 2, Vero C1008, read-out: SARS-CoV-2 (Omicron) EC50 (95% CI)
[4] = HEK293T cell cytotoxicity (Zombie NIR flow cytometry); details: human
[5] = Raji cell cytotoxicity (Zombie NIR flow cytometry); details: human
SARS-CoV-2 = SARS-CoV-2 Syrian hamster model, intranasal instillation from 12 h; assay type: in vivo; details: B3C9S solution by intranasal instillation, 1.5, 4.5, 6 mg/kg/day from 12 h
Procedure: Control Control *** Control
80 Placebo 80 Placebo 80 Placebo
Days post infection Days post infection Days post infection
Figure S10. Body weight of Syrian hamsters treated with 1.5mg/kg/day B3C9S (a), 4.5mg/kg/day B3C9S (b), 6mg/kg/day B3C9S (c) by intranasal instillation. 25 female Syrian hamsters were randomly assigned into five groups (control, placebo and three doses of B3C9S), each containing 5 hamsters. At day 0, each hamster was weighed and inoculated intranasally with 100 μl PBS (control) or 100 μl […] SARS-CoV-2 (placebo and B3C9S). Starting from 12 h after the inoculation, the hamsters in the placebo group and the […]
μg/μl) every day, respectively. The body weight of each hamster was measured every 12 h.
The weight measurements of each hamster were normalized by the initial weight and plotted against time post infection. The error bars represent the means ± standard deviations (n = 5). The asterisks represent the p value (*, <0.05; **, <0.01; ***, <0.001) calculated by two-tailed unpaired t test.
(also on this page, place not known: Body weight (%) Body weight (%) Body weight (%))

GFP-EBV B95-8 (EBV) = assay: microbe, parasite or virus in culture; assay type: cell-based, Epstein–Barr virus (EBV); details: human gammaherpesvirus 4, read-out: EBV EC50 (95% CI)
in vitro [6] = details: dog
SARS-CoV-2 Alpha = assay type: in vivo, Syrian hamster
[7] = system: Influenza A/Netherlands/2009 (H1N1); assay: H1N1 inhibition assay on MDCK cells (ICC); assay type: cell-based; details: Influenza A virus, read-out: H1N1 EC50 (95% CI)
TZM-bl cells = assay: TZM-bl cell cytotoxicity (WST-1); details: read-out: CC50 (95% CI), TZM-bl cells; HIV-1 line
Vero cells = assay: Vero cell cytotoxicity (MTS assay); assay type: cell-based; details: 24 h, read-out: CC50 (95% CI), Vero cells
Vero E6 cells = details: read-out: CC50 (95% CI), Vero E6 cells, SARS-CoV-2 (Alpha) line

SMILES	EC50 (HSV-2; Human alphaherpesvirus 2, Vero)	CC50 (in vitro [1])	CC50 at 24 h [2]	EC50 (SARS-CoV-2 (Alpha))	EC50 (HIV-1 (YU-2))	also measured
O=c1n(CCSCCCCCCCCCOS(=O)(=O)O)c(=O)n(CCSCCCCCCCCCOS(=O)(=O)O)c(=O)n1CCSCCCCCCCCCOS(=O)(=O)O [A3C9S]	20.1 µM	39.5 µM	221 µM	23.1 µM	–	–
O=S(=O)(O)OCCCCCCSCc1cc(CSCCCCCCOS(=O)(=O)O)cc(CSCCCCCCOS(=O)(=O)O)c1 [B3C6S]	78.4 µM	> 530 µM	> 530 µM	195 µM	5.47 µM	CC50 at 6 h ([3]; TZM-bl cells): > 133 µM
O=S(=O)(O)OCCCCCCCCCSCc1cc(CSCCCCCCCCCOS(=O)(=O)O)cc(CSCCCCCCCCCOS(=O)(=O)O)c1 [B3C9S]	7.9 µM	14.7 µM	331 µM	1.1 µM	6.34 µM	EC50 (GFP-KSHV (KSHV)): 48.2 µM; EC50 (HSV-2): 7.92 µM; EC50 (SARS-CoV-2 (Omicron)): 1.37 µM; CC50 at 2 days ([4]; HEK293T cells): 162 µM; CC50 at 2 days ([5]; Raji cells): > 341 µM; body weight loss of infected hamsters (SARS-CoV-2): reduced the body weight loss; EC50 (GFP-EBV B95-8 (EBV)): 46.5 µM; CC50 (in vitro [6]): 16.6 µM; CC50 at 6 h ([3]; TZM-bl cells): > 113 µM; efficacy with aerosol treatment compared with B6C11S (SARS-CoV-2 Alpha; hamster, in vivo): less effective; viral titer (viral RNA) in the lungs (SARS-CoV-2 Alpha; hamster, in vivo): significantly decreased the viral titer; viral titer (viral RNA) in the oral swab (SARS-CoV-2 Alpha; hamster, in vivo): significantly reduced; viral titer in oral swab and lung tissues vs untreated (SARS-CoV-2 Alpha; hamster, in vivo): No statistical difference; EC50 [7]: 5.11 µM
O=S(=O)(O)OCCCCCCCCCCCSCc1cc(CSCCCCCCCCCCCOS(=O)(=O)O)cc(CSCCCCCCCCCCCOS(=O)(=O)O)c1 [B3C11S]	26.2 µM	11.2 µM	384 µM	0.84 µM	6.44 µM	CC50 at 6 h ([3]; TZM-bl cells): > 100 µM
O=S(=O)(O)OCCOCCOCCOCCSCc1cc(CSCCOCCOCCOCCOS(=O)(=O)O)cc(CSCCOCCOCCOCCOS(=O)(=O)O)c1 [B3PEG4S]	> 400 µM	–	–	> 400 µM	–	HSV-2 inhibition at 400 μM (HSV-2; 400 μM): No inhibition
O=S(=O)(O)OCCCCCCCCCSCc1c(CSCCCCCCCCCOS(=O)(=O)O)c(CSCCCCCCCCCOS(=O)(=O)O)c(CSCCCCCCCCCOS(=O)(=O)O)c(CSCCCCCCCCCOS(=O)(=O)O)c1CSCCCCCCCCCOS(=O)(=O)O [B6C9S]	–	–	–	–	–	CC50 (TZM-bl cells): 10.5 µM; CC50 (Vero cells): 42.7 µM; CC50 (Vero E6 cells): 3.9 µM
CCc1c(CSCCCCCCOS(=O)(=O)O)c(CC)c(CSCCCCCCOS(=O)(=O)O)c(CC)c1CSCCCCCCOS(=O)(=O)O [BET3C6S]	28.5 µM	451 µM	> 477 µM	> 119 µM	8.22 µM	CC50 at 6 h [3]: > 119 µM
CCc1c(CSCCCCCCCCCOS(=O)(=O)O)c(CC)c(CSCCCCCCCCCOS(=O)(=O)O)c(CC)c1CSCCCCCCCCCOS(=O)(=O)O [BET3C9S]	13.1 µM	17 µM	81.6 µM	1.1 µM	6.12 µM	EC50 (SARS-CoV-2 (Omicron)): > 104 µM; CC50 at 6 h [3]: 29.7 µM
O=S(=O)(O)OCCCCCCCCCCn1cc(COc2cc(OCc3cn(CCCCCCCCCCOS(=O)(=O)O)nn3)cc(OCc3cn(CCCCCCCCCCOS(=O)(=O)O)nn3)c2)nn1 [BTA3C10S]	17.1 µM	> 929 µM	> 371 µM	> 93 µM	5.25 µM	CC50 (in vitro [6]): > 930 µM; CC50 at 6 h [3]: > 93 µM; EC50 [7]: 22.9 µM
O=S(=O)(O)OCCCCCCCCCCO[C@H]1[C@H](OS(=O)(=O)O)[C@H](OCCCCCCCCCCOS(=O)(=O)O)[C@H](OS(=O)(=O)O)[C@@H](OCCCCCCCCCCOS(=O)(=O)O)[C@@H]1OS(=O)(=O)O [I3C10S]	163 µM	> 356 µM	> 359 µM	458 µM	–	–
O=S(=O)(O)OCCCCCCCCCSCc1cccc(CSCCCCCCCCCOS(=O)(=O)O)c1CSCCCCCCCCCOS(=O)(=O)O [OB3C9S]	18 µM	18.4 µM	135 µM	1.4 µM	–	–
O=S(=O)(O)OCCCCCCCCCSCC(COS(=O)(=O)O)(COS(=O)(=O)O)CSCCCCCCCCCOS(=O)(=O)O [P2C9S]	326 µM	> 1300 µM	–	> 1300 µM	–	–
O=S(=O)(O)OCCCCCCCCCSCC(COS(=O)(=O)O)(CSCCCCCCCCCOS(=O)(=O)O)CSCCCCCCCCCOS(=O)(=O)O [P3C9S]	24.4 µM	413 µM	522 µM	10.3 µM	–	EC50 (SARS-CoV-2 (Omicron)): > 1080 µM
O=S(=O)(O)OCCCCCCCCCSCC(CSCCCCCCCCCOS(=O)(=O)O)(CSCCCCCCCCCOS(=O)(=O)O)CSCCCCCCCCCOS(=O)(=O)O [P4C9S]	6.5 µM	4 µM	185 µM	0.48 µM	1.94 µM	EC50 (GFP-KSHV (KSHV)): 20.8 µM; EC50 (HSV-2): 6.48 µM; CC50 at 2 days [4]: 122 µM; CC50 at 2 days [5]: > 276 µM; EC50 (GFP-EBV B95-8 (EBV)): 33.9 µM; CC50 at 6 h [3]: 18.4 µM
CC(C)(C)[C@H](NC(=O)C(F)(F)F)C(=O)N1C[C@H]2[C@@H]([C@H]1C(=O)N[C@H](C#N)C[C@@H]1CCNC1=O)C2(C)C [nirmatrelvir, reference compound]	–	–	–	–	–	viral RNA levels in oral swab vs untreated (SARS-CoV-2 Alpha; […], nirmatrelvir 250 mg/kg orally, P = 0.0021): significantly lower viral RNA levels; viral RNA copies in lung vs untreated (SARS-CoV-2 Alpha; […], nirmatrelvir 250 mg/kg orally, P = 0.0031): significantly decreased viral RNA copies; infectious viral titer (TCID50) in the lungs vs untreated (SARS-CoV-2 Alpha; […], nirmatrelvir 250 mg/kg orally, P = 0.0066): significantly decreased the viral titer; infectious viral titer (TCID50) in the lungs vs untreated (SARS-CoV-2 Alpha; […], nirmatrelvir 250 mg/kg orally, P = 0.012): significantly decreased the viral titer; infectious viral titer (TCID50) in the lungs vs untreated (SARS-CoV-2 Alpha; […], nirmatrelvir 250 mg/kg orally, P = 0.079): no significant difference; histopathological evaluation of lung tissues (SARS-CoV-2 Alpha; nirmatrelvir 250 mg/kg orally): improved pulmonary conditions; severe lung damage (histopathology categories E and F) (SARS-CoV-2 Alpha; nirmatrelvir 250 mg/kg orally, P = 0.03): reducing severe lung damage
